Laboratory results: patent publication US20250340944A1, “METHOD TO ASSIST IN SCREENING FOR LATE RECURRENCE OF ER+ BREAST CANCER, AND METHOD FOR SCREENING THERAPEUTIC DRUGS” (JAPANESE FOUNDATION FOR CANCER RESEARCH, priority 2022, published 2025)

Experiments:
Assay type in all cases: cell-based
CD44 mRNA = assay: RT-qPCR of CD44 mRNA after suppression of ELEANOR expression by LNAs; settings: HCC1428-LTED cells, ELEANOR knock-down by LNA
Procedure: FIG. 5D is a graph showing the results of RT-qPCR analysis of expressions of ESR1 and CD44 when ELEANORS are knocked down by ELEANOR2 LNA and pa-ELEANOR LNA.
Expressions of ESR1, ELEANORS, and CD44 in the HC1428 and HC1428-LTED cells were analyzed by RT-qPCR using the primers below. In the RT-qPCR, total RNA was purified from cultured cells using NucleoSpin RNA/protein kit (MACHEREY-NAGEL) and was reverse-transcribed by ReverTra Ace qPCR RT Master Mix (TOYOBO Co., Ltd.). The RT-qPCR was performed by ABI Prism 7500 (ABI inc.) using SYBR Green.
Subsequently, the ELEANOR expression was suppressed by LNAs of SEQ ID NO: 1 and SEQ ID NO: 41 specific to ELEANORS, and whether the CD44 expression is changed or not was investigated. The expression of CD44 mRNA was decreased by knock-down of these ELEANORS (FIG. 5D).

HCC1428-LTED cells [1] = assay: FACS analysis of CD44/CD24 expression (breast cancer stem cells) after LNA knock-down of ELEANOR2; settings: LNA transfected with RNAiMAX, analysis after 48 hours
Procedure: ELEANOR2 RNA which is most abundant in ELEANORS was knocked down by LNA, and CD44/CD24 expression was analyzed by FACS (FIG. 5B). The LNA below was transfected using RNAiMAX (Invitrogen), and analysis was performed after 48 hours.

HCC1428-LTED cells [2] = assay: FACS analysis of CD44 expression on the cell surface after ELEANOR knock-down
Procedure: The maximum value in the analysis is defined as 100.
Whether the CD44 expression is changed also at the protein level was investigated. Comparative analysis of CD44 expression between HCC1428 and HCC1428-LTED cells was performed. The LNA of SEQ ID NO: 1 that suppresses ELEANOR expression and siRNA (Thermo Fisher Scientific) that suppresses CD44 expression were introduced into HCC1428-LTED cells, and the CD44 expression was analyzed by Western blotting (FIG. 5E). […] Furthermore, an ELEANOR was knocked down by introducing the LNA of SEQ ID NO: 1 into HCC1428-LTED cells, and whether the CD44 expression on the cell surface is also changed or not was analyzed by FACS.

| Substance | expression of CD44 mRNA (CD44 mRNA) | number of breast cancer stem cells (CD44+/CD24-/low) (HCC1428-LTED cells [1]) | number of CD44+ cells (HCC1428-LTED cells [2]) |
| --- | --- | --- | --- |
| pa-ELEANOR-LNA: LNA specific to pa-ELEANOR, sequence GTGCCAGACTCCGATA (SEQ ID NO: 41) (LNA-modified antisense, pattern not given here) | decreased |  |  |
| ELEANOR2-LNA: LNA that knocks down ELEANOR2 RNA, sequence TTTGGCCACATTGGAA (SEQ ID NO: 1) (LNA-modified antisense, pattern not given here) | decreased | significantly decreased | decreased |
